Experimental data from patent US4138488A, “Diphenylmethyl picolinic acid derivatives and their use as anti-acne agents” (Schering Corporation, priority 1977, dated 1979).

Test: In vivo topical activity

Question: Which “in vivo topical activity” value does the source give for `Oc1c(Cl)cc(Cl)c(Cl)c1Cc1c(O)c(Cl)cc(Cl)c1Cl` [hexachlorophene] here?
Answer: neither hexachlorophene nor tetracycline exhibit substantial in vivo topical activity

Question: Which “in vivo topical activity” value does the source give for `CN(C)C1C(=O)C(C(N)=O)=C(O)C2(O)C(=O)C3=C(O)c4c(O)cccc4C(C)(O)C3CC12` (centres unmarked) [tetracycline] here?
Answer: neither hexachlorophene nor tetracycline exhibit substantial in vivo topical activity
